This note sets out measurements from US20060276400A1, “Modulation of cholesteryl ester transfer protein (CETP) activity” (priority 2005, published 2006).

One assay relates to human CETP. As to the kind of experiment: ELISA anti-huCETP antibody titers in sera of immunized human CETP transgenic mice. To be noted: in vivo; for average anti-huCETP titer: sc. Background: An ELISA detects its analyte on a solid surface through an enzyme-linked reagent.
The test system of assay [1] is serum HDL-cholesterol (HDLc). Also noted: species or system human CETP transgenic mice. As to conditions: in vivo.
A further assay has as its system serum CETP activity. As to the kind of experiment: Serum CETP activity (fluorescent cholesteryl ester transfer assay) in immunized human CETP transgenic mice. To be noted: in vivo.
Assay [2] relates to endogenous serum CETP activity. As to the kind of experiment: Change in endogenous serum CETP activity in rabbits immunized with full-length human CETP. To be noted: week 12 post-injection vs week -1 pre-injection, 0.2 mg huCETP in CFA, boosters in IFA; for increase in CETP activity following vaccination: Rabbit #1.

Regarding “CQYIKANSKFIGITEFGFPEHLLVDFLQSLS [CETi-1, reference compound]”, the “average anti-huCETP titer” value in the assay on human CETP is recorded as about 0.750 OD. Besides, the “change in serum HDLc levels in contrast to control group (in words)” value in assay [1] is recorded as “reduction”. The “effect on serum CETP activity (in words)” value in the assay on serum CETP activity is recorded as “appeared to elevate CETP activity”.

Turning to “CSKGTSHEAGIVCRITKPALLQYIKANSKFIGITE [CETi-2]”, in the assay on human CETP, the “average anti-huCETP titer” value is listed as about 0.750 OD. In addition, the “change in serum HDLc levels in contrast to control group (in words)” value in assay [1] is reported as “reduction”. For the same molecule, the “effect on serum CETP activity (in words)” value in the assay with serum CETP activity is given as “no effect on average”.

“SKGTSHEAGIVCRITKPALLQYIKANSKFIGITE [CETi-2.1]”: the “anti-huCETP titer lower than those of the CETi-1 and CETi-2 groups” value in the assay with human CETP was “approx. 30%”.

B1: human CETP: full-length human CETP (SEQ ID NO:7) purified from conditioned media of a huCETP transformed CHO cell line (protein)
chain: CSKGTSHEAGIVCRITKPALLVLNHETAKVIQTAFQRASYPDITGEKAMMLLGQVKYGLHNIQISHLSIASSQVELVEAKSIDVSIQNVSVVFKGTLKYGYTTAWWLGIDQSIDFEIDSAIDLQINTQLTCDSGRVRTDAPDCYLSFHKLLLHLQGEREPGWIKQLFTNFISFTLKLVLKGQICKEINVISNIMADFVQTRAASILSDGDIGVDISLTGDPVITASYLESHHKGHFIYKNVSEDLPLPTFSPTLLGDSRMLYFWFSERVFHSLAKVAFQDGRLMLSLMGDEFKAVLETWGFNTNQEIFQEVVGGFPSQAQVTVHCLKMPKISCQNKGVVVNSSVMVKFLFPRPDQQHSVAYTFEEDIVTTVQASYSKKKLFLSLLDFQITPKTVSNLTESSSESIQSFLQSMITAVGIPEVMSRLEVVFTALMNSKGVSLFDIINPEIITRDGFLLLQMDFGFPEHLLVDFLQSLS
modifications: Human; PEPTIDE (1)..(476) Amino aid sequence of full-length mature human CETP protein
Regarding B1, the “increase in CETP activity following vaccination” value is on record as “+85%” in assay [2] and 85% in assay [2] (listed as whole human CETP). Besides, the “decrease in CETP activity following vaccination” value in assay [2] (Rabbit #11, listed as whole human CETP) was determined as 77%.
